The results in this text go back to patent US20240287138A1, “CYCLIC PEPTIDES FOR INHIBITING TNF RECEPTOR 1 ACTIVITY” (Merck Sharp & Dohme LLC, priority 2023, published 2024).

Numbered stars: 1 amine (or outer) side, 2 acyl side, 3 side chain; on linkers, the order of the positions; unused ones are H or OH. Bridge positions count the residues as written; N and C are the ends. Square brackets hold non-standard residues; d marks the D form. Peptide text beside a SMILES is read from it. Trp(βS-Me,7-OMe) = COc1cccc2c([C@H](C)[C@H](N)C(=O)O)c[nH]c12; Trp(7-Cl) = N[C@@H](Cc1c[nH]c2c(Cl)cccc12)C(=O)O; Phe(4-COOH) = N[C@@H](Cc1ccc(C(=O)O)cc1)C(=O)O; X1 = O=C([C@@H]1CC[C@H](N[*:1])C1)[*:2]; Pip(4-aza) = O=C(O)[C@@H]1CNCCN1; 4Pal = N[C@@H](Cc1ccncc1)C(=O)O; NMeE = CN[C@@H](CCC(=O)O)C(=O)O; αMeS = C[C@](N)(CO)C(=O)O; Nle = CCCC[C@H](N)C(=O)O; Sar = CNCC(=O)O

The target in one assay is T1, human TNFR2 ECD protein (Homo sapiens, UniProt P20333).
T1 construct: HRV 3C protease cleavage site (C); 6His (C, cleaved yes); made in house; host or cells: Sf21 insect cells (baculovirus), secreted
T1 sequence (P20333 23-257): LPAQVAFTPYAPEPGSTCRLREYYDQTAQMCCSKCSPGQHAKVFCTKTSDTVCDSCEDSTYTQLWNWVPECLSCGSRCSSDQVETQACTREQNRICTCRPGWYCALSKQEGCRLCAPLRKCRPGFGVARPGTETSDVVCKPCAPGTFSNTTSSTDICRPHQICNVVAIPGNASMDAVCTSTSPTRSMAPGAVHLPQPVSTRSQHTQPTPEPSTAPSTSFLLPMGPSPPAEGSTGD
Kind of assay: SPR off-target binding (selectivity) to human TNFR2 ECD. The method in brief: (§1)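 Peptides are tested against captured biotin-tagged human TNFR1 ECD, with parallel TNFR2 ECD binding to check selectivity. Buffer: 10 mM HEPES pH 7.4, 150 mM NaCl, 3 mM EDTA, 0.05% P20, 2% DMSO.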

In assay [1] the target is T2, human TNFR1 extracellular domain (ECD) protein (Homo sapiens, UniProt P19438).
T2 construct: HRV 3C protease cleavage site (C); 6His (C, cleaved yes); made in house; host or cells: Sf21 insect cells (baculovirus), secreted
T2 sequence (P19438 30-211): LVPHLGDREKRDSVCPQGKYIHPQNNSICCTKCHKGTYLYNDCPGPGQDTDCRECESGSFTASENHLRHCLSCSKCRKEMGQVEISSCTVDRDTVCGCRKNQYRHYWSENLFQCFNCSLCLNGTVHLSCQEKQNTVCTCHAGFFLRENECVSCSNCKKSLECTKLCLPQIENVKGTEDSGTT
Kind of assay: SPR binding affinity to captured human TNFR1 ECD. The method in brief: as §1
For orientation: SPR reads the build-up and loss of mass on a sensor chip optically.

The target of assay [2] is T3, human soluble TNFR1 (sTNFR1) (Homo sapiens, UniProt P19438).
T3 construct: made in house; host or cells: Sf21 (baculovirus)
T3 sequence (P19438 with tags, fused parts or gaps): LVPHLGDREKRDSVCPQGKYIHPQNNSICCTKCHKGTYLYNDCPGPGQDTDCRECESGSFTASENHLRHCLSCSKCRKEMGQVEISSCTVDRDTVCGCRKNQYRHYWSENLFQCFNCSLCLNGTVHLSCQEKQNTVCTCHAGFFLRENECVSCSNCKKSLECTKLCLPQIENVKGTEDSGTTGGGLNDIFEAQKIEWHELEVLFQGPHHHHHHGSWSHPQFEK
Briefly: Human sTNFR1-peptide displacement assay (LanthaScreen Eu TR-FRET binding assay). The method in brief:
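Readout is the 665/615 nm TR-FRET ratio (Eu anti-His donor, streptavidin-Alexa647 acceptor), normalized to DMSO and saturating displacer, fit by Morrison-based five-parameter logistic for Kd^app. His-tagged sTNFR1 (1-211) prebound to 100 nM biotinylated peptide SEQ ID NO.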

As usually defined, the Kd is the concentration at which binding is half-saturated. By IC50 is commonly meant the concentration needed to halve the response being measured. Regarding `CCCC[C@@H]1NC(=O)[C@@H]2CC[C@@H](C2)NC(=O)[C@H]([C@@H](C)c2c[nH]c3c(OC)cccc23)NC(=O)CN(C)C(=O)[C@H](Cc2ccc(O)cc2)NC(=O)[C@H](Cc2ccc(C(=O)O)cc2)NC(=O)[C@](C)(CO)NC(=O)[C@H](Cc2c[nH]c3c(Cl)cccc23)NC(=O)[C@H](Cc2ccc(C(=O)O)cc2)NC(=O)[C@H](CC(N)=O)NC(=O)[C@H](CCC(=O)O)N(C)C(=O)[C@H](Cc2c[nH]c3ccccc23)NC(=O)[C@@H]2CNCCN2C(=O)[C@H](Cc2ccncc2)NC1=O` [SEQ ID NO. 288] (cyclo([4Pal][Pip(4-aza)]W[NMeE]N[Phe(4-COOH)][Trp(7-Cl)][αMeS][Phe(4-COOH)]Y[Sar][Trp(βS-Me,7-OMe)][X1][Nle])), the Kd at human TNFR2 ECD protein is above 1000 nM; in assay [1], 0.1 nM; in assay [2], 0.11 nM. The same molecule returned an IC50 in assay [2] of 0.2 nM.
With `CN1CC(=O)N[C@@H](CC(N)=O)C(=O)N[C@@H](Cc2ccc(O)cc2)C(=O)N[C@@H](Cc2c[nH]c3ccccc23)C(=O)N[C@@H](CO)C(=O)N[C@@H](Cc2ccc(O)cc2)C(=O)N[C@@H](Cc2ccc(O)cc2)C(=O)N(C)CC(=O)N[C@@H](Cc2c[nH]c3ccccc23)C(=O)N[C@H](C(=O)NCC(=O)N[C@@H](CCC(=O)O)C(=O)N[C@@H](CCC(=O)O)C(N)=O)CSCC(=O)N[C@@H](Cc2ccccc2)C(=O)N[C@@H](Cc2ccc(O)cc2)C(=O)N[C@@H](CO)C(=O)N[C@@H](Cc2c[nH]c3ccccc23)C1=O` [SEQ ID NO. 289] ({CH2CO}-FYSW[Sar]NYWSYY[Sar]WCGEE-NH2; thioether N-14), the Kd on human TNFR2 ECD protein was above 1000 nM; in assay [1] it was 7.43 nM. Also, the IC50 in assay [2] amounted to 9.87 nM.
